Legend:
ROCK1 = ROCK1 (Homo sapiens, UniProt Q13464); conditions: biochemical and cell-based assays, review; cited from earlier work
[1] = cited from earlier work
ROCK2 = ROCK2 (Homo sapiens, UniProt O75116); conditions: biochemical and cell-based assays, previous studies; cited from earlier work
HEK293 GFP Parkin cells [2] = test: Parkin recruitment assay; assay type: cell-based
Procedure: HEK293 GFP Parkin cells were seeded into 12-well plates containing coverslips. Cells were treated with small molecules for 2 hours prior to mitophagy induction with 10 μM CCCP, unless indicated otherwise. Following fixation with 4% PFA, immunostaining was carried out using anti-ATP5A primary antibody and anti-mouse Alex Fluor 568.
To measure the percentage of cells with Parkin localized to mitochondria a 2 step process was employed: (1) whole cell segmentation based on GFP Parkin using CellProfiler software and (2) classification into Parkin distribution subpopulation using CellProfiler Analyst. The percentage of cells with Parkin localized to mitochondria was determined in each image. Images were taken at 20× magnification for this experiment, resulting in the classification of at least 300 cells in each treatment group per trial.

HEK293 GFP Parkin cells [3] = test: High throughput small molecule screen for Parkin recruitment to mitochondria (high content imaging); assay type: cell-based; conditions: for rank in the kinase inhibitor library screen (rank order by z-score): 4 μM, 16 h, then CCCP 2 h, rank out of 480, low rank = activator of Parkin recruitment, high rank = inhibitor; for % of cells with mitochondrial Parkin: CCCP only (DMSO pinned)
Procedure: 10 uL of 0.1 mg/mL Poly-D-Lys solution was added to 384-well plates for 5 minutes, followed by a PBS wash. Plates were dried for at least 2 hours. 50 μL of 600 000 HEK293 GFP Parkin cell/mL of DMEM was dispensed into each well. After 24 hours incubation to allow the cells to adhere, 200 nL of small molecules (or DMSO in columns 1, 2, 23 and 24) were pinned. Following a 16-hour incubation, 200 nL of 5 mM CCCP were added to all wells except columns 1 and 2, into which 200 nL of DMSO was added. Following 2-hour incubation, cells were fixed with 4% paraformaldehyde (PFA) and stained with 50 μL of 1 μg/mL DAPI solution for 15 minutes. After the final PBS wash, plates were ready for high content microscopy.
Images were acquired on IN Cell Analyzer 6000 (GE Healthcare), equipped with sCMOS camera (2048×2048), and 20x/0.45 NA Plan Fluor objective (Nikon) in open aperture mode using 1×1 binning. Image analysis was performed using Columbus Image Analysis System (PerkinElmer). Nuclei were initially detected in DAPI channel, followed by whole cell segmentation in GFP channel. Using PhenoLOGIC machine learning plug-in, cells were split into 2 sub-populations: cells with even GFP-Parkin distribution and cells where GFP-Parkin was localized to mitochondria. The percentage of cells with mitochondrial GFP-Parkin was determined per well. The molecules were then rank ordered based on z-score, which is calculated using the formula: […]
where x is the percentage of cells with mitochondrial GFP-Parkin for a specific small molecule, μ is the average percentage of cells with mitochondrial Parkin in positive control columns 23 and 24, where cells are treated with CCCP only.
These cell lines were screened across 2 biological replicates with compounds from the kinase inhibitor (n=480) and Prestwick (n=1120) collections. The 3-day screening protocol consisted of (1) seeding cells, (2) pinning small molecules at 4 μM concentration and (3) inducing mitophagy with CCCP, followed by processing of plates for high content imaging. Following image acquisition, DAPI staining was used to segment cells within each image. Supervised machine learning was used to classify cells into two classes: (1) cells with cytosolic Parkin distribution and (2) those with Parkin localized to mitochondria. […] Compounds which increased the proportion of class 2 cells across 2 biological replicates, compared to the CCCP-only treated cells (FIG. 10), as indicated by their z-score (FIG. 11), were considered hits.

SH-SY5Y cells = test: Cell viability by crystal violet staining; assay type: cell-based; conditions: CCCP alone, 24 hours
Procedure: A) SH-SY5Y cells were pre-treated with either DMSO or 0.5 μM SR3677 prior to addition of either DMSO or 10 μM CCCP for 24 hours. Following treatment, cells were washed, fixed with 4% paraformaldehyde and stained with crystal violet dye. B) The OD at 550 nm was measured to assess crystal violet staining.
To determine whether these findings could be translated into dopaminergic neurons, the study was continued in the dopaminergic neuroblastoma SH-SY5Y cell line. Parkin undergoes a similar CCCP-dependent subcellular transition from cytosol to mitochondria in these cells^12. First, whether the viability of these cells would be improved by SR3677 was investigated. Initially, experiments were conducted using crystal violet staining as an indicator of cell viability. […] Next, SH-SY5Y cells were differentiated into a more neuron-like population according to protocols previously described^10 and ATP levels were measured. […] Varying concentrations of SR3677 were co-administered alongside the PD-causing toxin paraquat.

[4] = tested on: HeLa cells stably expressing GFP parkin and mito-DsRed; test: Mitochondrial clearance assay; assay type: cell-based; conditions: pre-treated with DMSO, 24 hour 10 μM CCCP
Procedure: HeLa cells stably expressing GFP parkin and mito-DsRed were seeded into 12-well plates containing coverslips and allowed to adhere overnight. Cells were then treated with DMSO or 0.5 μM SR3677 for 2 hours prior to addition of 10 μM CCCP for 24 hours. Cells were then washed with PBS, fixed with 4% PFA and washed with PBS again prior to the mounting of coverslips onto glass slides. Mitochondrial clearance was quantified by counting the number of cells in each treatment to retain mito-DsRed signal. 3 independent trials were performed with at least 50 cells quantified per trial.

HeLa cells [5] = test: Mito-QC assay (targeting of mitochondria to lysosomes); assay type: cell-based; conditions: 50 μM chloroquine 16 hours pre-treatment
Procedure: HeLa cells were seeded into 6-well plates containing glass coverslips and allowed to adhere overnight. Cells were co-transfected with RGOMP25 and Cerulean-Parkin plasmids 24 hours prior to treatments. E-64 and leupeptin were added along with either DMSO or 10 μM CCCP for 6 hours prior followed by a PBS wash, fixation with 4% PFA and a final PBS wash prior to mounting onto glass slides with Fluoromount.
Cells were treated with 50 μM chloroquine for 16 hours prior to addition of E64, leupeptin, SR3677 and CCCP in the indicated treatment group. For the in vivo mitoQC assays, 5 7-day old male TH-GAL4>UAS-mitoQC were placed into vials containing water (control), sublethal 1 mM paraquat, 1 mM SR3677 alone and in combination with paraquat for 7 days. […] Fly brains were mounted in VectaShield™ mounting medium for imaging using the Zeiss LSM700 confocal fluorescence microscope with 40× 1.4 NA Oil Plan-APOCRAMAT objective and the appropriate lasers and filter. […]
Quantification of the RG assay was done using Fiji software. […] A red/green fluorescence intensity ratio was determined for each pixel. Pixels were considered red-only if the red/green fluorescence ratio was greater than or equal to 1.5. The area of red-only pixels over the total non-background area was determined and averaged across 4 independent trials in which at least 20 cells were quantified per treatment.

[6] = tested on: HeLa cells expressing GFP Parkin WT and mito-dsRed; test: Parkin recruitment after Ac220 pre-treatment and CCCP; assay type: cell-based; conditions: Ac220 pre-treatment, 10 μM CCCP
Procedure: (§1) A) HeLa cells expressing GFP Parkin WT and mito-dsRed were treated with either DMSO, 10 μM CCCP or 4 μM Ac220 in combination with CCCP. B) Cell lysates from HeLa cells pre-treated with either DMSO or 4 μM Ac220 prior to addition of 10 μM CCCP were separated by SDS-PAGE and immunoblotting was performed against Mfn2 and actin. C) Cells were pre-treated with either DMSO, 2 μM Ac220, 1 μM Ac220 prior to addition of 10 μM CCCP. D) Cells were pre-treated with indicated concentrations of Ac220 prior to addition of 10 μM CCCP for 1 hour. Cell lysates were separated by SDS-PAGE and immunoblotting was performed against Mfn2 and actin. E) Densitometry analysis of Mfn2 levels normalized to loading control […]. Data is presented as mean±s.d. F) HeLa GFP Parkin cells were transfected with HA-PINK1 and pre-treated with either DMSO or Ac220 prior to addition of CCCP and Mg132. G) HeLa GFP Parkin cells and H) SH-SY5Y cells were pre-treated with either DMSO or Ac220 prior to addition of CCCP for the indicated time. Immunoblotting was performed using antibodies against PINK1 and actin.

PINK1 = PINK1 accumulation after mitochondrial damage (immunoblot); assay type: cell-based; conditions: Ac220 pre-treatment, CCCP; HeLa GFP Parkin and SH-SY5Y cells
Procedure: as §1

HeLa cells [7] = test: Immunoblotting of Mfn2 degradation after Ac220 and CCCP; assay type: cell-based; conditions: Ac220 pre-treatment, 10 μM CCCP
Procedure: as §1
Lysates were harvested using lysis buffer (0.1M Tris HCl, 0.01% SDS, pH 9) with 1× protease inhibitor cocktail (BioShop, PIC002.1). […] 12% SDS-PAGE gels were used to run samples to be analyzed for LC3 conversation and for Tom20 and 10% gels were run for all other samples. […]

[8] = used in Japan; cited from earlier work

Sequence of ROCK1 (Q13464 whole entry, species assumed): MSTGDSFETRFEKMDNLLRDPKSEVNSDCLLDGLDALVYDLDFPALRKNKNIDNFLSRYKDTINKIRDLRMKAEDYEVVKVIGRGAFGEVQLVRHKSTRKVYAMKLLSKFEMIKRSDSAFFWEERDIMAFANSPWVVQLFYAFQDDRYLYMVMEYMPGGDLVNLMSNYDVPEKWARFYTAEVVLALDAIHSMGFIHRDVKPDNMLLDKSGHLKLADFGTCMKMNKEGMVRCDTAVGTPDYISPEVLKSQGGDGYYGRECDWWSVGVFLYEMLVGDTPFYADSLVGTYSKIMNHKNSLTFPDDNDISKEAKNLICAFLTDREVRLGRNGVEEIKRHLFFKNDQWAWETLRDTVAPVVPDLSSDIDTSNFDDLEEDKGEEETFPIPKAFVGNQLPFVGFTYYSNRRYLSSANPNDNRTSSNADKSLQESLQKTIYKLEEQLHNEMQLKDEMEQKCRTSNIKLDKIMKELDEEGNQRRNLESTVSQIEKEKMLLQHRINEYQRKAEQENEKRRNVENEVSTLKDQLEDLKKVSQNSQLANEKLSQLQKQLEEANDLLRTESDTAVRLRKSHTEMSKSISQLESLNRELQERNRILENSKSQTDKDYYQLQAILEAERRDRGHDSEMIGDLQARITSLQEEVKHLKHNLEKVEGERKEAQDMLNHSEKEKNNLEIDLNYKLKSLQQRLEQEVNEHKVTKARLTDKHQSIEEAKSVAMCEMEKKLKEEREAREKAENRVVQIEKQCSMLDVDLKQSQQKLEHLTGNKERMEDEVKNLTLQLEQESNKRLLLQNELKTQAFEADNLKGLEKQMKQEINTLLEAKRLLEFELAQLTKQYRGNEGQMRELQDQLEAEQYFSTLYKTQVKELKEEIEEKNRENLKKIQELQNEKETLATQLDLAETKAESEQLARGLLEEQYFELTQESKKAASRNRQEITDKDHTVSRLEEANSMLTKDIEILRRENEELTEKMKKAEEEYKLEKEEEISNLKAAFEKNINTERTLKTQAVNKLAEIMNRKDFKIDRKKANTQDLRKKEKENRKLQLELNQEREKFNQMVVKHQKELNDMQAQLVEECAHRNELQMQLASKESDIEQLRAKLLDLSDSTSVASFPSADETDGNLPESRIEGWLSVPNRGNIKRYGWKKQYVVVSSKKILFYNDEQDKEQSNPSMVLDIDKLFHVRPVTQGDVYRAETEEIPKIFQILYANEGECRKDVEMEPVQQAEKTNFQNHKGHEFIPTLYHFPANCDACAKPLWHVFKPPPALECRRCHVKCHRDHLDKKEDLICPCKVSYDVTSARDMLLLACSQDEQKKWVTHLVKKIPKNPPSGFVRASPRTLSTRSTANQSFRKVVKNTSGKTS
Sequence of ROCK2 (O75116 whole entry): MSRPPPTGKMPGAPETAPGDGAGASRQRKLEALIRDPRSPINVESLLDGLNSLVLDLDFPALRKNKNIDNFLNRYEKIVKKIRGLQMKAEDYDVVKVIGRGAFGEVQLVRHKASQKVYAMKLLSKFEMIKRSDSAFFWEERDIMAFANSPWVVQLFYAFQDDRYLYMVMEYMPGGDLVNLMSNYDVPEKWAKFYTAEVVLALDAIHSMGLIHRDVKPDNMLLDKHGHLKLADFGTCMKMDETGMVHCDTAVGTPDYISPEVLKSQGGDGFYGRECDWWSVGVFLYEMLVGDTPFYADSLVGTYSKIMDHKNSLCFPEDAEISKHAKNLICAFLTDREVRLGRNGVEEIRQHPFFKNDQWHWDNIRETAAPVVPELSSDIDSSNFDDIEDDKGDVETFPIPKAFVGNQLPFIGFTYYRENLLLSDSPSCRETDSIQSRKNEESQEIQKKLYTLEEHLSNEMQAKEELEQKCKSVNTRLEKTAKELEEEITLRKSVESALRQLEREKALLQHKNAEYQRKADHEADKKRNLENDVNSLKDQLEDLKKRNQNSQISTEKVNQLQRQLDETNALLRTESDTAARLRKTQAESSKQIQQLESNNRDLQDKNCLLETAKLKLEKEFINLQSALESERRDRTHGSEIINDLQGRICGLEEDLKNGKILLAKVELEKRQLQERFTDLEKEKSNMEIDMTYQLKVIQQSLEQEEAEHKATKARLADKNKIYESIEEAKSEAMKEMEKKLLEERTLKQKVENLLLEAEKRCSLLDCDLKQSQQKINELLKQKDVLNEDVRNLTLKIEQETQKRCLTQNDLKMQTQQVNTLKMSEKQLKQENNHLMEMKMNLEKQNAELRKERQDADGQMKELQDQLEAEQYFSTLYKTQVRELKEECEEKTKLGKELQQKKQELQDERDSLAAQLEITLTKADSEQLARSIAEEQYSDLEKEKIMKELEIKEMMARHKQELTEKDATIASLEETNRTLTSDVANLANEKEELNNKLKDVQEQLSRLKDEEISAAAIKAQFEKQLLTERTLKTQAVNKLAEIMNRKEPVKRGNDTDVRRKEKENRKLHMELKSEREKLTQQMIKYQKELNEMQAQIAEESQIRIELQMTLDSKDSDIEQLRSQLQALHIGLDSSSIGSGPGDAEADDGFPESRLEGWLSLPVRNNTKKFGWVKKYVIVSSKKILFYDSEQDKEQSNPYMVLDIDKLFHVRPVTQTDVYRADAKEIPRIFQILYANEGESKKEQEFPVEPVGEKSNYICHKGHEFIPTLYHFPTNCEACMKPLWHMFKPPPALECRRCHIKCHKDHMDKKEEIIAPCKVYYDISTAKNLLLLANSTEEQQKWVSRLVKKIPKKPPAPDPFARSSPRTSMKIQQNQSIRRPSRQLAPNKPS

## C[C@@H](N)[C@H]1CC[C@H](C(=O)Nc2ccncc2)CC1 [Y27632]
ROCK1
  ROCK1 inhibition: sufficiently inhibit both ROCK1 and ROCK2
[1]
  cell permeability: poor cell permeability
ROCK2
  ROCK2 inhibition: sufficiently inhibit both ROCK1 and ROCK2
HEK293 GFP Parkin cells [2]; 10 μM, 2-hour treatment, CCCP
  Parkin recruitment on re-test: recapitulated the effects observed following overnight incubation
HEK293 GFP Parkin cells [2]; compound alone
  Parkin distribution in the absence of CCCP: diffuse
HEK293 GFP Parkin cells [3]
  rank in the kinase inhibitor library screen (rank order by z-score): 9/480

## N#CC(C#N)=NNc1cccc(Cl)c1 [CCCP, carbonyl cyanide m-chlorophenylhydrazone]
SH-SY5Y cells
  crystal violet staining: reduced the amount of staining
HEK293 GFP Parkin cells [3]; Prestwick library screen
  % of cells with mitochondrial Parkin: 71.2±2.6%
HEK293 GFP Parkin cells [3]; kinase inhibitor library screen
  % of cells with mitochondrial Parkin: 83.4±2.3%
[4]
  % of cells that retained mito-DsRed: 47.5±8.25%

## CCN(CC)CCCC(C)Nc1ccnc2cc(Cl)ccc12 (centres unmarked) [chloroquine]
HeLa cells [5]
  effect on SR3677-mediated enhancement of mitophagy: abrogates SR3677-mediated enhancement of mitophagy

## CC(C)(C)c1cc(NC(=O)Nc2ccc(-c3cn4c(n3)sc3cc(OCCN5CCOCC5)ccc34)cc2)no1 [Ac220]
[6]
  Parkin recruitment: inhibited Parkin recruitment
PINK1
  PINK1 accumulation in response to mitochondrial damage: fails to accumulate
HeLa cells [7]
  degradation of Mfn2: inhibited
HEK293 GFP Parkin cells [3]
  rank in the kinase inhibitor library screen (rank order by z-score): 475/480

## O=S(=O)(c1cccc2cnccc12)N1CCCNCC1 [Fasudil]
[8]
  safety and efficacy in vasospasm following subarachnoid hemorrhage: safety and efficacy
HEK293 GFP Parkin cells [3]; ROCK inhibitors, 4 μM plus CCCP
  class in the screen (FIG. 1b): Enhancers of Parkin recruitment
